Primed or numbered codes have the meaning given here. The star is where a group is joined. Ac3‑α‑GalNAc″ = peracetylated alpha-N-acetylgalactosamine, CC(=O)N[C@@H]1[C@@H](OC(C)=O)[C@@H](OC(C)=O)[C@@H](COC(C)=O)O[C@@H]1*; Ac3‑β‑GlcNAc = per-acetylated β-N-acetylglucosamine, CC(=O)N[C@@H]1[C@@H](OC(C)=O)[C@H](OC(C)=O)[C@@H](COC(C)=O)O[C@H]1*; αGalNAc = CC(=O)N[C@@H]1[C@@H](O)[C@@H](O)[C@@H](CO)O[C@@H]1*; βGlcNAc = CC(=O)N[C@@H]1[C@@H](O)[C@H](O)[C@@H](CO)O[C@H]1*; βGlc = OC[C@H]1O[C@@H](*)[C@H](O)[C@@H](O)[C@@H]1O; Palmitoyl = CCCCCCCCCCCCCCCC(=O)*
Legend:
[1] = system: Human Dermal Fibroblasts (KMST-6); assay: ECM ELISA assay: elastin secretion by human dermal fibroblasts; assay type: cell-based; conditions: 5 μM, % compared to control set at 100%, normalized to total protein; for Elastin Secretion at 48 hours: KMST-6, 48 hours; for Elastin Secretion at 72 hours: KMST-6, 72 hours
Description: (§1) KMST-6 cells (Japan Health Sciences Foundation, JCRB0433) were seeded at 7,000 cells/ml in 12-well tissue culture treated plates (Falcon, 353043) in complete media. The complete media consisted of the following: MEM/EBSS (Hyclone, SH30024.01), 10% Heat-Inactivated FBS (Gibco, 10082-147), 1% L-Glutamine (Hyclone, SH30031.01), 1% Nucleosides (800 mg/L Adenosine, 850 mg/L Guanidine, 730 mg/L Cytidine, 730 mg/L Uridine and 240 mg/L Thymidine), 1% Penicillin/Streptomycin (HyClone, SV30010), 1% Sodium Pyruvate (HyClone, SH30239.01), 1% Non-Essential Amino Acids (Hyclone, SH30238.01) and 0.04% Gentamicin (Gibco, 15710-064). Cells were grown for 2 days prior to treatments. The media was aspirated and cells were washed with 1×PBS (Fisher, SH30256.01) and treated with 5 μM (1 mL/well) glycopeptides, reference (Pal-KTTKS, CPC Scientific, 822197), and control (DMSO, Fisher, BP231-100) in serum-free media supplemented with 50 μg/mL Sodium Ascorbate (Sigma, A4034) and 80 μg/mL β-Aminopropionate Fumarate (Sigma, A3134). The treated cells were incubated at 37° C. and 5% CO2 for 48 and 72 hours. At each timepoint, media from each treatment was collected and centrifuged at 1500 RPM for 15 minutes at 4° C. The supernatant was collected and stored at −80° C. for extracellular matrix protein quantification. The following kits were used for quantification of ECM proteins: Fibronectin (Takara, MK115) and Elastin (Uscn Life Science Inc., E91337Hu). The cells were harvest and lysed with 250 μL Lysis Buffer (20 mM Tris-HCl (Sigma, T1503), 137 mM NaCl (Sigma, S9888), 2 mM EDTA (Fisher, BP118), 1% IGEPAL (Sigma, 18896), 10% Glycerol (Sigma, G5516), 100 μM PMSF (Fisher, 36978) and 10 μg/mL Leupeptin (Sigma-Aldrich, L2884). They were placed on a container of ice on a plate shaker (Lab-Line Instruments, 3595) for 30 minutes. The lysate was centrifuged at 10,000 g for 5 minutes at 4° C. The supernatant was collected and used for protein quantification (BioRad, 500-0112).
(§2) To determine effects on extracellular matrix protein secretion, 5 μM of individual glycopeptides were incubated with Human Dermal Fibroblasts (KMST-6). The control sample cells were treated with DMSO (Fisher, BP231-100). As described previously, supernatant was collected from treated cells (at two time-points, 48 and 72 hours of treatment) and stored at −80° C. for subsequent extracellular matrix protein quantification using ELISA kits (Fibronectin (Takara, MK115), Elastin (Uscn Life Science Inc., E91337Hu). For the determination of total cellular protein, treated cells were harvested and lysed. The lysate was centrifuged, the supernatant was collected and then used for protein quantification (BioRad, 500-0112). ELISA plates were read on the plate reader (Molecular Devices) at absorbance of 450 nm and SoftMax Pro software was used to compute the μg/ml values of protein of interest derived from the generated 4-parameter fit standard curve. Each μg/ml of protein secreted was normalized to total protein per well. The data was analysed by averaging out normalized values from at least three independent experiments and presenting them as a % compared to control treatment set at 100% (Table 2-5). Statistical significance was performed using One-way ANOVA (p<0.05) where “*” represents statistical significance when compared to control and “#” represents statistical significance when compared to reference. […]

[2] = system: Human Dermal Fibroblasts (KMST-6); assay: ECM ELISA assay: fibronectin secretion by human dermal fibroblasts; assay type: cell-based; conditions: 5 μM, % compared to control set at 100%, normalized to total protein; for Fibronectin secretion at 48 hours: KMST-6, 48 hours; for Fibronectin Secretion at 72 hours: KMST-6, 72 hours
Description: as §1, §2

Row | Substance | Elastin Secretion at 48 hours [1] | Elastin Secretion at 72 hours [1] | Fibronectin secretion at 48 hours [2] | Fibronectin Secretion at 72 hours [2]
1 | Pal-KTT(Ac3-β-GlcNAc)KS-OH (Palmitoyl-KTT(Ac3‑β‑GlcNAc)KS-OH; SMILES CCCCCCCCCCCCCCCC(=O)N[C@@H](CCCCN)C(=O)N[C@H](C(=O)N[C@H](C(=O)N[C@@H](CCCCN)C(=O)N[C@@H](CO)C(=O)O)[C@@H](C)O[C@@H]1O[C@H](COC(C)=O)[C@@H](OC(C)=O)[C@H](OC(C)=O)[C@H]1NC(C)=O)[C@@H](C)O; listed as Homo sapiens) [GP001-11] | 114.3% | 94.75% | 111.2% | 113.8%
2 | Pal-KTT(α-GalNAc)KS-OH (Palmitoyl-KTT(αGalNAc)KS-OH; SMILES CCCCCCCCCCCCCCCC(=O)N[C@@H](CCCCN)C(=O)N[C@H](C(=O)N[C@H](C(=O)N[C@@H](CCCCN)C(=O)N[C@@H](CO)C(=O)O)[C@@H](C)O[C@H]1O[C@H](CO)[C@H](O)[C@H](O)[C@H]1NC(C)=O)[C@@H](C)O; listed as Homo sapiens) [GP001-10] | 103.0% | 98.67% | 100.2% | 104.0%
3 | Pal-KTT(β-Glc)KS-OH (Palmitoyl-KTT(βGlc)KS-OH; SMILES CCCCCCCCCCCCCCCC(=O)N[C@@H](CCCCN)C(=O)N[C@H](C(=O)N[C@H](C(=O)N[C@@H](CCCCN)C(=O)N[C@@H](CO)C(=O)O)[C@@H](C)O[C@@H]1O[C@H](CO)[C@@H](O)[C@H](O)[C@H]1O)[C@@H](C)O; listed as Homo sapiens) [GP001-8] | 94.25% | 91.25% | 106.4% | 106.2%
4 | Pal-KTT(β-GlcNAc)KS-OH (Palmitoyl-KTT(βGlcNAc)KS-OH; SMILES CCCCCCCCCCCCCCCC(=O)N[C@@H](CCCCN)C(=O)N[C@H](C(=O)N[C@H](C(=O)N[C@@H](CCCCN)C(=O)N[C@@H](CO)C(=O)O)[C@@H](C)O[C@@H]1O[C@H](CO)[C@@H](O)[C@H](O)[C@H]1NC(C)=O)[C@@H](C)O; listed as Homo sapiens) [GP001-12] | 73.00% | 76.75% | 106.5% | 89.25%
5 | Pal-KTTKS(Ac3-α-GalNAc)-OH (Palmitoyl-KTTKS(Ac3‑α‑GalNAc″)-OH; SMILES CCCCCCCCCCCCCCCC(=O)N[C@@H](CCCCN)C(=O)N[C@H](C(=O)N[C@H](C(=O)N[C@@H](CCCCN)C(=O)N[C@@H](CO[C@H]1O[C@H](COC(C)=O)[C@H](OC(C)=O)[C@H](OC(C)=O)[C@H]1NC(C)=O)C(=O)O)[C@@H](C)O)[C@@H](C)O; listed as Homo sapiens) [GP002-1] | 144.8% | 145.5% | 114.7% | 108.0%
6 | Pal-KTTKS(Ac3-β-GlcNAc)-OH (Palmitoyl-KTTKS(Ac3‑β‑GlcNAc)-OH; SMILES CCCCCCCCCCCCCCCC(=O)N[C@@H](CCCCN)C(=O)N[C@H](C(=O)N[C@H](C(=O)N[C@@H](CCCCN)C(=O)N[C@@H](CO[C@@H]1O[C@H](COC(C)=O)[C@@H](OC(C)=O)[C@H](OC(C)=O)[C@H]1NC(C)=O)C(=O)O)[C@@H](C)O)[C@@H](C)O; listed as Homo sapiens) [GP002-5] | 159.3% | 137.3% | 111.3% | 104.2%
